Like-named read-outs stand apart in the source and are kept apart here.
Target: T1, SIRT1 (Homo sapiens, UniProt Q96EB6)
T1 sequence (Q96EB6 1-747): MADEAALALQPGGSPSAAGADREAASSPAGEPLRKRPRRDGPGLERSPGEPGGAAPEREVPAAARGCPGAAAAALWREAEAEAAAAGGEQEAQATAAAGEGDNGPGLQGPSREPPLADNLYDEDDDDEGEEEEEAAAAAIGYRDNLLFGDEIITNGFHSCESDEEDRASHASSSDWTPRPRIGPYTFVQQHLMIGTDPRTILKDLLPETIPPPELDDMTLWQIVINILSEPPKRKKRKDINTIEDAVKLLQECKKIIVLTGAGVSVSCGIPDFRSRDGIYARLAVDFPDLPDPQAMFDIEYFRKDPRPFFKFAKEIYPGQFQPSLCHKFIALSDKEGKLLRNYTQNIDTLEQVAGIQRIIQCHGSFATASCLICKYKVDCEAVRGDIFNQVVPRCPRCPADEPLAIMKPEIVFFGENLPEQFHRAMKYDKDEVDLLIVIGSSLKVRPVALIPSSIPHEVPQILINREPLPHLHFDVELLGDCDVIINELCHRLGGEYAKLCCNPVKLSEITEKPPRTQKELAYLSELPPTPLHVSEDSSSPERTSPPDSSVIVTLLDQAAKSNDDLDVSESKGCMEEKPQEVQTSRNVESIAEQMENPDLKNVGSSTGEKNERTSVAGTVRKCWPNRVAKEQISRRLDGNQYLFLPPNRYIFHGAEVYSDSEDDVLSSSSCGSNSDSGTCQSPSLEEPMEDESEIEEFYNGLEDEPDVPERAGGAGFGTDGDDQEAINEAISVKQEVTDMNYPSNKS
Assay: Trp mass spectrometry assay of SIRT1 activation (Ac-R-H-K-K(Ac)-W-NH2 peptide)
Assay type: biochemical
Settings: for Emax: 25 min, read-out: TRP MAX RESP (percent maximum fold activation)
Summary of the method: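 Mass spectrometry read-out (OAADPR formed, or deacetylated Trp peptide) after a 25 min NAD-dependent deacetylation by E. coli-expressed His-SIRT1, stopped with formic acid.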

[1] = Trp peptide 0.5 μM, 120 μM βNAD+, 10 nM SIRT1, 25 min at 25° C., relative to control (100%)
[2] = Trp peptide 0.5 μM, 120 μM βNAD+, 10 nM SIRT1, 25 min at 25° C.

Row | Compound | Emax [1] [%] | TRP Activity (EC1.5, concentration of test compound that results in 150% activation of SIRT1) [2] | Emax [%]
1 | CC(C)[C@@H](NC(=O)c1ccc2c(n1)N(C(=O)Nc1ccccn1)[C@H]1CCN2C1)C(F)(F)F [Example 29, (4S)—N5-(pyridin-2-yl)-N7-((R)-1,1,1-trifluoro-3-methylbutan-2-yl)-3,4-dihydro-1,4-methanopyrido[2,3-b][1,4]diazepine-5,7(2H)-dicarboxamide] | > 150 | A (EC1.5<1 μM) | –
2 | CC[C@@H](CO)NC(=O)c1ccc2c(n1)N(C(=O)Nc1ccccn1)[C@H]1CCN2C1 [Example 30, (4S)—N7-((S)-1-hydroxybutan-2-yl)-N5-(pyridin-2-yl)-3,4-dihydro-1,4-methanopyrido[2,3-b][1,4]diazepine-5,7(2H)-dicarboxamide] | > 150 | A (EC1.5<1 μM) | –
3 | CC[C@H](NC(=O)c1ccc2c(n1)N(C(=O)Nc1ccccn1)[C@H]1CCN2C1)C(F)(F)F [Example 31, (4S)—N5-(pyridin-2-yl)-N7-((S)-1,1,1-trifluorobutan-2-yl)-3,4-dihydro-1,4-methanopyrido[2,3-b][1,4]diazepine-5,7(2H)-dicarboxamide] | > 150 | A (EC1.5<1 μM) | –
4 | CC(C)NC(=O)c1ccc2c(n1)N(C(=O)Nc1ccccn1)[C@H]1CCN2C1 [Example 32, (4S)—N7-isopropyl-N5-(pyridin-2-yl)-3,4-dihydro-1,4-methanopyrido[2,3-b][1,4]diazepine-5,7(2H)-dicarboxamide] | – | A (EC1.5<1 μM) | > 150
5 | O=C(NC[C@@H](O)C(F)(F)F)c1ccc2c(n1)N(C(=O)Nc1ccccn1)[C@H]1CCN2C1 [Example 34, (4S)—N5-(pyridin-2-yl)-N7-((R)-3,3,3-trifluoro-2-hydroxypropyl)-3,4-dihydro-1,4-methanopyrido[2,3-b][1,4]diazepine-5,7(2H)-dicarboxamide] | > 150 | A (EC1.5<1 μM) | –
6 | O=C(NCC1CC1)c1ccc2c(n1)N(C(=O)Nc1ccc(F)cn1)[C@H]1CCN2C1 [Example 38, (4S)—N7-(cyclopropylmethyl)-N5-(5-fluoropyridin-2-yl)-3,4-dihydro-1,4-methanopyrido[2,3-b][1,4]diazepine-5,7(2H)-dicarboxamide] | > 150 | A (EC1.5<1 μM) | –
7 | CC(C)(CO)CNC(=O)c1ccc2c(n1)N(C(=O)Nc1ccccn1)[C@H]1CCN2C1 [Example 41, (4S)—N7-(3-hydroxy-2,2-dimethylpropyl)-N5-(pyridin-2-yl)-3,4-dihydro-1,4-methanopyrido[2,3-b][1,4]diazepine-5,7(2H)-dicarboxamide] | > 150 | B (EC1.5 1-25 μM) | –
8 | O=C(NCC1CC1)c1ccc2c(n1)N(C(=O)Nc1ccc(Cl)cn1)[C@H]1CCN2C1 [Example 51, (4S)—N5-(5-chloropyridin-2-yl)-N7-(cyclopropylmethyl)-3,4-dihydro-1,4-methanopyrido[2,3-b][1,4]diazepine-5,7(2H)-dicarboxamide] | > 150 | A (EC1.5<1 μM) | –
9 | O=C(NC[C@H](O)C(F)(F)F)c1ccc2c(n1)N(C(=O)Nc1ccccn1)[C@H]1CCN2C1 [Example 52, (4S)—N5-(pyridin-2-yl)-N7-((S)-3,3,3-trifluoro-2-hydroxypropyl)-3,4-dihydro-1,4-methanopyrido[2,3-b][1,4]diazepine-5,7(2H)-dicarboxamide] | > 150 | A (EC1.5<1 μM) | –

Further lines, with some results ahead:

Row | Emax [1] [%] | TRP Activity (EC1.5, concentration of test compound that results in 150% activation of SIRT1) [2] | Compound | Emax [%]
10 | > 150 | A (EC1.5<1 μM) | CC[C@@H](C)NC(=O)c1ccc2c(n1)N(C(=O)Nc1ccccn1)[C@H]1CCN2C1 [Example 33, (4S)—N7-((R)-sec-butyl)-N5-(pyridin-2-yl)-3,4-dihydro-1,4-methanopyrido[2,3-b][1,4]diazepine-5,7(2H)-dicarboxamide] | –
11 | > 150 | A (EC1.5<1 μM) | O=C(NC1CCCC1)c1ccc2c(n1)N(C(=O)Nc1ccccn1)[C@H]1CCN2C1 [Example 35, (4S)—N7-cyclopentyl-N5-(pyridin-2-yl)-3,4-dihydro-1,4-methanopyrido[2,3-b][1,4]diazepine-5,7(2H)-dicarboxamide] | –
12 | > 150 | B (EC1.5 1-25 μM) | O=C(NCC1(O)CC1)c1ccc2c(n1)N(C(=O)Nc1ccccn1)[C@H]1CCN2C1 [Example 36, (4S)—N7-((1-hydroxycyclopropyl)methyl)-N5-(pyridin-2-yl)-3,4-dihydro-1,4-methanopyrido[2,3-b][1,4]diazepine-5,7(2H)-dicarboxamide] | –
13 | > 150 | A (EC1.5<1 μM) | CC(C)CNC(=O)c1ccc2c(n1)N(C(=O)Nc1ccccn1)[C@H]1CCN2C1 [Example 37, (4S)—N7-isobutyl-N5-(pyridin-2-yl)-3,4-dihydro-1,4-methanopyrido[2,3-b][1,4]diazepine-5,7(2H)-dicarboxamide] | –
14 | > 150 | A (EC1.5<1 μM) | O=C(NCCF)c1ccc2c(n1)N(C(=O)Nc1ccccn1)[C@H]1CCN2C1 [Example 39, (4S)—N7-(2-fluoroethyl)-N5-(pyridin-2-yl)-3,4-dihydro-1,4-methanopyrido[2,3-b][1,4]diazepine-5,7(2H)-dicarboxamide] | –
15 | > 150 | A (EC1.5<1 μM) | CCCNC(=O)c1ccc2c(n1)N(C(=O)Nc1ccccn1)[C@H]1CCN2C1 [Example 40, (4S)—N7-propyl-N5-(pyridin-2-yl)-3,4-dihydro-1,4-methanopyrido[2,3-b][1,4]diazepine-5,7(2H)-dicarboxamide] | –
16 | > 150 | B (EC1.5 1-25 μM) | O=C(NC[C@H]1CCCO1)c1ccc2c(n1)N(C(=O)Nc1ccccn1)[C@H]1CCN2C1 [Example 42, (4S)—N5-(pyridin-2-yl)-N7-(((R)-tetrahydrofuran-2-yl)methyl)-3,4-dihydro-1,4-methanopyrido[2,3-b][1,4]diazepine-5,7(2H)-dicarboxamide] | –
17 | > 150 | A (EC1.5<1 μM) | CC(C)[C@@H](C)NC(=O)c1ccc2c(n1)N(C(=O)Nc1ccccn1)[C@H]1CCN2C1 [Example 45, (4S)—N7-((R)-3-methylbutan-2-yl)-N5-(pyridin-2-yl)-3,4-dihydro-1,4-methanopyrido[2,3-b][1,4]diazepine-5,7(2H)-dicarboxamide] | –
18 | > 150 | A (EC1.5<1 μM) | O=C(N[C@H](C1CC1)C(F)(F)F)c1ccc2c(n1)N(C(=O)Nc1ccccn1)[C@H]1CCN2C1 [Example 46, (4S)—N7-((R)-1-cyclopropyl-2,2,2-trifluoroethyl)-N5-(pyridin-2-yl)-3,4-dihydro-1,4-methanopyrido[2,3-b][1,4]diazepine-5,7(2H)-dicarboxamide] | –
19 | > 150 | A (EC1.5<1 μM) | CC(F)(F)CNC(=O)c1ccc2c(n1)N(C(=O)Nc1ccccn1)[C@H]1CCN2C1 [Example 47, (4S)—N7-(2,2-difluoropropyl)-N5-(pyridin-2-yl)-3,4-dihydro-1,4-methanopyrido[2,3-b][1,4]diazepine-5,7(2H)-dicarboxamide] | –
20 | > 150 | B (EC1.5 1-25 μM) | CC(C)(C)NC(=O)c1ccc2c(n1)N(C(=O)Nc1ccccn1)[C@H]1CCN2C1 [Example 48, (4S)—N7-(tert-butyl)-N5-(pyridin-2-yl)-3,4-dihydro-1,4-methanopyrido[2,3-b][1,4]diazepine-5,7(2H)-dicarboxamide] | –
21 | > 150 | B (EC1.5 1-25 μM) | C[C@@H](CO)NC(=O)c1ccc2c(n1)N(C(=O)Nc1ccccn1)[C@H]1CCN2C1 [Example 53, (4S)—N7-((S)-1-hydroxypropan-2-yl)-N5-(pyridin-2-yl)-3,4-dihydro-1,4-methanopyrido[2,3-b][1,4]diazepine-5,7(2H)-dicarboxamide] | –
